Reference: US5436260A, “Angiotensin II receptor antagonists” (Warner-Lambert Company, priority 1994, dated 1995)
Where a name gives a salt, the structure may show the parent alone.

Molecular target: T1, AT1 receptor (Rattus norvegicus, UniProt P25095)
T1 construct: rat liver membranes; from tissue; host or cells: rat liver membranes
T1 sequence (P25095 1-359): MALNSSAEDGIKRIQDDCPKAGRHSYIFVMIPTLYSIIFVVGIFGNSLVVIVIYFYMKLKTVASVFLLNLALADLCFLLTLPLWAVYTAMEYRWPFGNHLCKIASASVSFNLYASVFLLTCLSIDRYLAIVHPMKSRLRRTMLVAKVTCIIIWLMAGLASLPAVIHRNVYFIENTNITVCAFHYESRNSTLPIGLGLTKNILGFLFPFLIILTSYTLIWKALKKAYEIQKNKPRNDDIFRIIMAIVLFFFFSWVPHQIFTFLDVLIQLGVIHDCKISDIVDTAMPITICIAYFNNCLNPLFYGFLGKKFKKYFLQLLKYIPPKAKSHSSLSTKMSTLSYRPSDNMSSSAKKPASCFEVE
Experiment: [^3 H]angiotensin II binding to rat liver membranes (AT1 test)
Details: inhibition of [^3 H]angiotensin II binding
Method: The compounds of Formula I or Ia are antagonists of angiotensin II. Dudley, D. T., et al, Molecular Pharmacology 1990;38:370-377 reported the existence of 2 subclasses of angiotensin II binding sites in rabbit adrenal gland and uterus and in the rat liver which differ in their tissue distribution and affinity for various peptide and nonpeptide ligands. Thus, the compounds of Formula I or Ia were tested for their ability to inhibit [^3 H]angiotensin II binding to rat liver membranes (AT1 test) according to the methods described by Dudley, D. T., et al, Molecular Pharmacology 1990;38:370-7. […] It is well established that compounds which antagonize the effect of angiotensin II at the AT1 receptor have value for treatment of hypertension and heart failure.

Compound	IC50
CCCCc1ncc(/C=C2/C(=O)N(CCCC)C(=O)N2Cc2cc(C)on2)n1Cc1ccc(C(=O)OC)cc1 [Example 108, Methyl Z-4-[[2-butyl-5-[[1-butyl-3-[(5-methyl-3-isoxazolyl)methyl]-2,5-dioxo-4-imidazolidinylidene]methyl]-1H-imidazol-1-yl]methyl]benzoate]	8.47 nM
CCCCc1ncc(/C=C2/C(=O)N(COC)C(=O)N2CCCC)n1Cc1ccc(C(=O)OC)cc1 [Example 54, Methyl Z-4-[[2-butyl-5-[[3-butyl-1-(methoxymethyl)-2,5-dioxo-4-imidazolidinylidene]methyl]-1H-imidazol-1-yl]methyl]benzoate monohydrochloride]	29.5 nM
CCCCc1ncc(/C=C2/C(=O)N(CC3CC3)C(=O)N2Cc2cccs2)n1Cc1ccc(C(=O)OC)cc1 [Example 89, Methyl Z-4-[[2-butyl-5-[[1-(cyclopropylmethyl)-2,5-dioxo-3-(2-thienylmethyl)-4-imidazolidinylidene]methyl]-1H-imidazol-1-yl]methyl]benzoiate monohydrochloride]	2.59 nM
CCCCc1ncc(/C=C2/C(=O)N(CCCC)C(=O)N2Cc2ccno2)n1Cc1ccc(C(=O)OC)cc1 [Example 106, Methyl Z-4-[[2-butyl-5-[[1-butyl-3-(5-isoxazolyl-methyl)-2,5-dioxo-4-imidazolidinylidene]methyl]-1H-imidazol-1-yl]methyl]benzoate monohydrochloride]	10.1 nM
CCCCc1ncc(/C=C2/C(=O)N(CO)C(=O)N2Cc2csc(C)n2)n1Cc1ccc(C(=O)OC)cc1 [Example 101, Methyl Z-4-[[2-butyl-5-[[1-(hydroxymethyl)-3-[(2-methyl-4-thiazolyl)methyl]-2,5-dioxo-4-imidazolidinylidene]methyl]-1H-imidazol-1-yl]methyl]benzoatedihydrochloride]	35.7 nM
CCCCc1ncc(CC2C(=O)NC(=O)N2CCCC)n1Cc1ccc(-c2ccccc2-c2nnn[nH]2)cc1 (stereo not shown) [Example 95, 1-Butyl-5-[[2-butyl-3-[[2'-(1H-tetrazol-5-yl)[1,1'-biphenyl]-4yl]methyl]-3H-imidazol-4-yl]methyl]-2,4-imidazolidinedione]	2.67 nM
CCCCc1ncc(/C=C2/C(=O)N(CCCC)C(=O)N2CCc2ccsc2)n1Cc1ccc(C(=O)OC)cc1 [Example 80, Methyl Z-4-[[2-butyl-5-[[1-butyl-2,5-dioxo-3-[2-(3-thienyl)ethyl]-4-imidazolidinylidene]methyl]-1H-imidazol-1-yl]methyl]benzoate monohydrochloride]	14.6 nM
CCCCc1ncc(/C=C2/C(=O)N(CCCC)C(=O)N2CCCC(F)(F)F)n1Cc1ccc(C(=O)OC)cc1 [Example 112, Methyl Z-4-[[2-butyl-5-[[1-butyl-2,5-dioxo-3-(4,4,4-trifluorobutyl)-4-imidazolidinylidene]methyl]-1H-imidazol-1-yl]methyl]benzoate dihydrochloride]	6.44 nM
CCCCc1ncc(/C=C2/C(=O)N(CCCC)C(=O)N2Cc2csc(C)n2)n1Cc1ccc(C(=O)OC)cc1 [Example 68, Methyl Z-4-[[2-butyl-5-[[1-butyl-3-[(2-methyl-4-thiazolyl)methyl]-2,5-dioxo-4-imidazolidinylidene]methyl]-1H-imidazol-1-yl]methyl]benzoate dihydrochloride]	4.2 nM
CCCCc1ncc(/C=C2/C(=O)N(CCCC)C(=O)N2Cc2c(C)noc2C)n1Cc1ccc(C(=O)OC)cc1 [Example 69, Methyl Z-4-[[2-butyl-5-[[1-butyl-3-[(3,5-dimethyl-4-isoxazolyl)methyl]-2,5-dioxo-4-imidazolidinylidene]methyl]-1H-imidazol-1-yl]methyl]benzoate monohydrochloride]	198 nM
CCCCc1ncc(/C=C2/C(=O)N(CC)C(=O)N2Cc2csc(C)n2)n1Cc1ccc(C(=O)OC)cc1 [Example 109, Methyl Z-4-[[2-butyl-5-[[1-ethyl-3-[(2-methyl-4-thiazolyl)methyl]-2,5-dioxo-4-imidazolidinylidene]methyl]-1H-imidazol-1-yl]methyl]benzoate dihydrochloride]	11.1 nM
CCCCc1ncc(/C=C2\NC(=O)N(CCCC)C2=O)n1Cc1ccc(C2(C(=O)OC)CCCC2)cc1 [Example 83, Methyl Z-1-[4-[[2-butyl-5-[(1-butyl-2,5-dioxo-4-imidazolidinylidene)methyl]-1H-imidazol-1-yl]methyl]phenyl]cyclopentanecarboxylate]	> 1000 nM
CCCCc1ncc(/C=C2/C(=O)N(CCCC)C(=O)N2CC(=O)c2cccs2)n1Cc1ccc(C(=O)OC)cc1 [Example 103, Methyl Z-4-[[2-butyl-5-[[1-butyl-2,5-dioxo-3-[2-oxo-2-(2-thienyl)ethyl]-4-imidazolidinylidene]methyl]-1H-imidazol-1-yl]methyl]benzoate monochloride]	120 nM
CCCCCCN1C(=O)/C(=C/c2cnc(CCCC)n2Cc2ccc(C(=O)OC)cc2)N(Cc2csc(C)n2)C1=O [Example 51, Methyl Z-4-[[2-butyl-5-[1-hexyl-3-[(2-methyl-4-thiazolyl)methyl-2,5-dioxo-4-imidazolidinylidene]methyl]-1H-imidazol-1-yl]methyl]benzoate dihydrochloride]	5.33 nM
CCCCc1ncc(/C=C2/C(=O)N(CCCC)C(=O)N2C(c2ccccc2)c2ccccc2)n1Cc1ccc(C(=O)OC)cc1 [Example 42, Methyl Z-4-[[2-butyl-5-[[1-butyl-2,5-dioxo-3-(diphenylmethyl)-4-imidazolidinylidene]methyl]-1H-imidazol-1-yl]methyl]benzoate mono hydrochloride]	884 nM
CCCCc1ncc(/C=C2/C(=O)NC(=O)N2CCCC)n1Cc1ccc(-c2ccccc2-c2nn[nH]n2)cc1 [Example 91, Z-1-Butyl-5-[[2-butyl-3-[[2'-(1H-tetrazol-5-yl)[1,1'-biphenyl]-4-yl]methyl]-3H-imidazol-4-yl]methylene]-2,4-imidazolidinedione]	1.37 nM
CCCCc1ncc(/C=C2/C(=O)N(CCCC)C(=O)N2Cc2ccccc2)n1Cc1ccc(C(=O)OC)cc1 [Example 36, Methyl Z-4-[[2-butyl-5-[[1-butyl-2,5-dioxo-3-(phenylmethyl)-4-imidazolidinylidene]methyl]-1H-imidazol-1-yl]methyl]benzoate monohydrochloride]	12.4 nM
CCCCc1ncc(/C=C2/C(=O)NC(=O)N2C)n1Cc1ccc(-c2ccccc2-c2nnn[nH]2)cc1 [Example 93, Z-5-[[2-butyl-3-[[2'-(1H-tetrazol-5-yl)[1,1 '-biphenyl]-4-yl]methyl]-3H-imidazol-4-yl]methylene]1-methyl-2,4-imidazolidinedione]	5.51 nM
CCCCc1ncc(/C=C2/C(=O)N(COC)C(=O)N2Cc2csc(C)n2)n1Cc1ccc(C(=O)OC)cc1 [Example 56, Methyl Z-4-[[2-butyl-5-[[1-(methoxymethyl)-3-[(2-methyl-4-thiazolyl)methyl]-2,5-dioxo-4-imidazolidinylidene]methyl]-1H-imidazol-1-yl]methyl]benzoate dihydrochloride]	47.8 nM

Further lines, results first:

IC50	Compound
276 nM	CCCCc1ncc(/C=C2/C(=O)NC(=O)N2CCCC)n1Cc1ccc(C2(C(=O)OC)CCCCC2)cc1 [Example 88a]
700 nM	CCCCc1nc(Br)c(/C=C2/C(=O)NC(=O)N2CCCC)n1Cc1ccc(-c2ccccc2C(=O)OC)cc1 [Example 97a, Methyl Z-4'-[[4-bromo-2-butyl-5-[(3-butyl-2,5-dioxo-4-imidazolidinylidene)methyl]-1H-imidazol-1-yl]methyl][1,1'-biphenyl]-2-carboxylate]
2.63 nM	CCCCc1ncc(/C=C2\C(=O)NC(=O)N2Cc2cccs2)n1Cc1ccc(C2(C(=O)O)CCCC2)cc1 [Example 26a, E-1-[4-[[2-butyl-5-[[2,5-dioxo-3-(2-thienylmethyl)-4-imidazolidinylidene]methyl]-1H-imidazol-1-yl]methyl]phenyl]cyclopentanecarboxylic acid]
6.92 nM	CCCCc1ncc(/C=C2/C(=O)NC(=O)N2Cc2cccs2)n1Cc1ccc(C(=O)OC)cc1 [Example 16b, (Z)-4-[[2-Butyl-5-[[2,5-dioxo-3-((2-thienyl)methyl)-4-imidazolidinylidene]methyl]-1H-imidazole-1-yl]methyl]benzoic acid, methyl ester]
89.3 nM	CCCCc1ncc(/C=C2/C(=O)NC(=O)N2Cc2ccc(OC)c(OC)c2)n1Cc1ccc(C(=O)O)cc1 [Example 21b]
9.86 nM	CCCCc1ncc(/C=C2\C(=O)NC(=O)N2CCCC)n1Cc1ccc(-c2ccccc2C(=O)OC)cc1 [Example 96b, Methyl E 4'-[[2-butyl-5-[(3-butyl-2,5-dioxo-4-imidazolidinylidene)methyl]-1H-imidazol-1-yl]methyl][1,1'-biphenyl]-2-carboxylate]
4.17 nM	CCCCc1ncc(/C=C2/C(=O)NC(=O)N2Cc2ccccc2)n1Cc1ccc(C(=O)O)cc1 [Example 4b]
15.9 nM	CCCCc1ncc(/C=C2/C(=O)NC(=O)N2CCCC)n1Cc1ccc(-c2ccccc2C(=O)OC)cc1 [Example 96a]
1.43 nM	CCCCc1ncc(/C=C2/C(=O)NC(=O)N2Cc2cccs2)n1Cc1ccc(C(=O)O)cc1 [Example 6b]
